Among the data in patent publication US11548870B2, “Compounds useful as inhibitors of helios protein” (Bristol-Myers Squibb Company, priority 2019, dated 2023) are DC50 and Dmax values, retold here.

For one assay, the target named is T1, Helios (Homo sapiens, UniProt Q96SW2+Q9UKS7).
T1 construct: fluorescently labelled antibodies against Helios and Ikaros; endogenous in cells; host or cells: Jurkat cells
In words: Helios Cellular Degradation Assay (flow cytometry, Helios-PE antibody staining, 72 h). In kind it is cell-based. Particulars: Jurkat cells, 72 h incubation, flow cytometry; for Dmax: Jurkat, read-out: Helios Dmax. In outline: (§1)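 Jurkat cells (80,000/well, RPMI+10% FBS) were exposed to compound for 72 h at 37 °C, then fixed, permeabilized and co-stained for 1 h with Ikaros-Alexa488 and Helios-PE antibodies. Intracellular protein levels were read by flow cytometry.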
(In general: A flow cytometer gives signals particle by particle.)

The target of a further assay is T2, Ikaros (Homo sapiens, UniProt Q13422).
T2 construct: fluorescently labelled antibodies against Helios and Ikaros; endogenous in cells; host or cells: Jurkat cells
T2 sequence (Q96SW2 whole entry partner): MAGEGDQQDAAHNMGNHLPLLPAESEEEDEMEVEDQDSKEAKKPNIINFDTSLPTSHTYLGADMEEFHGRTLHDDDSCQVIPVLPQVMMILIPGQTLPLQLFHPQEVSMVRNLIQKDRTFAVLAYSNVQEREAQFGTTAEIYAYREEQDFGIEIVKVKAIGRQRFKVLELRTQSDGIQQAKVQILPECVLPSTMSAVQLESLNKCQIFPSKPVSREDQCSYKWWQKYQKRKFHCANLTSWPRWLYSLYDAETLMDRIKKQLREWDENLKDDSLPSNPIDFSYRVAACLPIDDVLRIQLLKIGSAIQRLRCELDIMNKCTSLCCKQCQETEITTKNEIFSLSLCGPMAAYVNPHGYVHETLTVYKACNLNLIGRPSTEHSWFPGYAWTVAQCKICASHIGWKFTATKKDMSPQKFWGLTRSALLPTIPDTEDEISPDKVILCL
T2 sequence (Q16531 whole entry partner): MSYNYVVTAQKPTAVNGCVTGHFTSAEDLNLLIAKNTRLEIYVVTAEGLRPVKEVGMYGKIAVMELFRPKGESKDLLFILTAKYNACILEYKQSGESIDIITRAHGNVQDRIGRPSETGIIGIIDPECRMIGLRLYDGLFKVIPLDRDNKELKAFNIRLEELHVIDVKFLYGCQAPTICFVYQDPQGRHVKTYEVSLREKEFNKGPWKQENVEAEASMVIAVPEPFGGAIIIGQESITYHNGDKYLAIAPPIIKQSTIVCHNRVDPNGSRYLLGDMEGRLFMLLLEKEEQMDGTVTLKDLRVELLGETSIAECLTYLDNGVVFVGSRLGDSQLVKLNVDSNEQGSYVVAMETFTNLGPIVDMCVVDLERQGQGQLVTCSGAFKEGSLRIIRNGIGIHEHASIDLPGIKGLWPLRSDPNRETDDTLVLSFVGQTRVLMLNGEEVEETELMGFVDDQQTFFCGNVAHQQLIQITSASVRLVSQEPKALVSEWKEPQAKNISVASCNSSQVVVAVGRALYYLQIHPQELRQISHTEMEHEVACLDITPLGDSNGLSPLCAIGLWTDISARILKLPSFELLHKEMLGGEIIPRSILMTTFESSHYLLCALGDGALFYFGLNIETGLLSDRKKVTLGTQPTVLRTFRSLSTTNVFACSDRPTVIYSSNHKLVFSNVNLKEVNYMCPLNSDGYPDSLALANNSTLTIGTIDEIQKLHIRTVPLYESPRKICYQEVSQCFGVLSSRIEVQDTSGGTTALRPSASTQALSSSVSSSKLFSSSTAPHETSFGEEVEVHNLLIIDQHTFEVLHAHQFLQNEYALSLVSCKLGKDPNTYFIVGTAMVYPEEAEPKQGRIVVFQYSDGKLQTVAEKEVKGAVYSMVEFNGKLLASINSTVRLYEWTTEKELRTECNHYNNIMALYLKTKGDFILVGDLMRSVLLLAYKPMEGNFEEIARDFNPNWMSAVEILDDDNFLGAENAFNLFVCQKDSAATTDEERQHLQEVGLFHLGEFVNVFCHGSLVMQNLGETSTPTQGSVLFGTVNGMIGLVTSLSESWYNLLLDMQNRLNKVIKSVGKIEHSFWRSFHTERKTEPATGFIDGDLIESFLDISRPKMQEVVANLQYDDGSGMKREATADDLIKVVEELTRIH
T2 sequence (Q13422 whole entry): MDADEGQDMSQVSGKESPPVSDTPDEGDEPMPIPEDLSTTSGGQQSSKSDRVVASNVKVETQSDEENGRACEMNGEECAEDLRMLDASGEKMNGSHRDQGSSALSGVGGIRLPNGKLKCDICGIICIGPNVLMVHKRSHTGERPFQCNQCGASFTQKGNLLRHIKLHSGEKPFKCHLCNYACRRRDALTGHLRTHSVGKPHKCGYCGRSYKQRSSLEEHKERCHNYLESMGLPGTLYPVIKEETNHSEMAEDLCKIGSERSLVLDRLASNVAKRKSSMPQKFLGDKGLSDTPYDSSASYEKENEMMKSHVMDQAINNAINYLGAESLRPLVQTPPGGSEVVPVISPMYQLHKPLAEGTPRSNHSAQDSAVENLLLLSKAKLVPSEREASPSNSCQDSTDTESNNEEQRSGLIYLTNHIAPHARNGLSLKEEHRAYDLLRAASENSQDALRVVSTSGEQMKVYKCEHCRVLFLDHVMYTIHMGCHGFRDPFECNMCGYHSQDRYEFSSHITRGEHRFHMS
In words: Helios Cellular Degradation Assay, Ikaros readout (flow cytometry, Ikaros-Alexa488 antibody staining, 72 h). It is filed as cell-based. Particulars: Jurkat cells, 72 h incubation, flow cytometry; for Dmax: Jurkat, read-out: Ikaros Dmax. In outline: as §1

The structures appear in SMILES notation.

The DC50 is the concentration at which degradation of the target reaches its halfway point. Broadly, the Dmax is the greatest extent of degradation seen.

T1 sequence (Q9UKS7 whole entry): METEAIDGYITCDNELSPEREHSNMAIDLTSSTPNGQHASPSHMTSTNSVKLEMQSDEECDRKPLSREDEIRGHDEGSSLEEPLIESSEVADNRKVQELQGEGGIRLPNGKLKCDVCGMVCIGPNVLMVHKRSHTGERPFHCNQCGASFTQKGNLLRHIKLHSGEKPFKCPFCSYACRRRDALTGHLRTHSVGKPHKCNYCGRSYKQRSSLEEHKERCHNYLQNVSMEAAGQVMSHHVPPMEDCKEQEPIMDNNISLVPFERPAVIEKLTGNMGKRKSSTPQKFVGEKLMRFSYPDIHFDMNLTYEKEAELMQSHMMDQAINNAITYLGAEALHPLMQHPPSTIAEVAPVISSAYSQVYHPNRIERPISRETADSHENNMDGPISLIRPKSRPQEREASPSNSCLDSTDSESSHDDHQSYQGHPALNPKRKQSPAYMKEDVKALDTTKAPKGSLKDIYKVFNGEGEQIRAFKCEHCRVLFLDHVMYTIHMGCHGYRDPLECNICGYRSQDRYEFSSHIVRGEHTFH
T1 sequence (Q96SW2 whole entry): as the sequence (Q96SW2 whole entry partner) above
T1 sequence (Q16531 whole entry partner): as the sequence (Q16531 whole entry partner) above

For `O=C1CCC(N2Cc3cc(-c4nccc(CN5CC(c6ccccc6)C5)c4F)ccc3C2=O)C(=O)N1` (stereo not shown) [Example 191, 3-(5-(3-fluoro-4-((3-phenylazetidin-1-yl)methyl)pyridin-2-yl)-1-oxoisoindolin-2-yl) piperidine-2,6-dione], at Helios, it took 3.2 µM to reach half-maximal degradation (DC50) and the Dmax worked out at 52%. For the same molecule, at Ikaros, the DC50 is over 10 µM and the Dmax stood at 3%.
Regarding `O=C1CCC(N2Cc3cc(-c4cc(CNCC(c5ccccc5)c5ccccc5)ccn4)ccc3C2=O)C(=O)N1` (stereo not shown) [Example 90, 3-(5-(4-(((2,2-diphenylethyl)amino)methyl)pyridin-2-yl)-1-oxoisoindolin-2-yl)piperidine-2,6-dione], the results for the DC50 on Helios and on Ikaros were 0.213 µM and over 10 µM, respectively. Moreover, the results for the Dmax at Helios and at Ikaros were 61% and 17%, respectively.
For `CN(Cc1ccc(-n2ccnc2)cc1)Cc1ccnc(-c2ccc3c(c2)CN(C2CCC(=O)NC2=O)C3=O)c1` (stereo not shown) [Example 177, 3-(5-(4-(((4-(1H-imidazol-1-yl)benzyl)(methyl)amino)methyl)pyridin-2-yl)-1-oxoisoindolin-2-yl)piperidine-2,6-dione] the same measures were over 10 µM, over 10 µM, 43% and 12%.
In the same order, the values of `C[C@@H](c1ccccc1)N(C)Cc1ccnc(-c2ccc3c(c2)CN(C2CCC(=O)NC2=O)C3=O)c1` (stereo partly drawn) [Example 136, 3-(5-(4-((methyl((S)-1-phenylethyl)amino)methyl)pyridin-2-yl)-1-oxoisoindolin-2-yl)piperidine-2,6-dione] are 0.084 µM, over 10 µM, 62% and 0%.
